Assay results: US9422396B2, “Biodegradable elastomers prepared by the condensation of an organic di-, tri- or tetra-carboxylic acid and an organic diol” (QATAR UNIVERSITY, priority 2007, dated 2016)

Experiments:
[1] = In vitro hydrolytic degradation of poly(diol-tricarballylate) elastomers in PBS (pH 7.4); type: physicochemical
Description: In order to examine the influence of chain length on the degradation rate and the changes in the mechanical properties of the elastomer during the in vitro degradation, four different elastomers, based on varying chain lengths of alkylene diol (C6-C12), were prepared and tested. FIGS. 21a and 21b show the weight loss and water absorption data for the four prepared elastomers.
Young's modulus (E) and the ultimate tensile stress (σ) decreased in a nearly linear fashion with time as indicative of zero-order degradation mechanism. This linear decrease was observed regardless of the network compositions, the crosslinking density and the initial E and σ of the elastomers. […] No significant change in the ultimate elongation was found up to 12 weeks of the in vitro degradation time. […] It is only with surface erosion degradation pattern that the elastomers can maintain their mechanical properties unchanged^41. […] The above observations illustrates that the changes in the mechanical properties of these networks took place in two stages. The first stage was characterized by a rapid mechanical weakening (rapid decrease in E and a) which lasted for up to 4 weeks. […] This is in correlation with the trend noted for the weight loss and water absorption reported above (FIG. 21).
Through a linear regression of the zero-order degradation kinetics of the data in FIGS. 23a and 23b using equations (1) & (2), the rate constants were calculated and are listed in Table 1. Et=E0−KEt. (1) σt=σ0−Kσt. (2) In equations 1 & 2, t denoted the immersion time (in weeks) in PBS. The values of E0 and σ0 corresponded to the intercepts obtained from extrapolating the zero-order fitted line. Kσ and KE represented the zero-order degradation constants for […].

[2] = Stability of pilocarpine nitrate in the release medium; type: physicochemical; conditions: over a period of one week
Description: Before running the release studies, the stability of PCN in the release medium was tested by monitoring the changes in the concentration of a prepared stock solution of PCN in each of them over a period of one week.

| Compound | KE (zero-order degradation constant, Young's modulus) [1] [MPa/week] | Kσ (zero-order degradation constant, ultimate tensile stress) [1] [MPa/week] | Change in concentration of stock solution in the release medium [2] |
| --- | --- | --- | --- |
| poly(1,12 dodecane diol-co-tricarballylate) [PDDTC] | 0.0080 | 0.0018 | – |
| poly(1,10 decane diol-co-tricarballylate) [PDTC] | 0.0237 | 0.0114 | – |
| poly(1,8 octane diol-co-tricarballylate) [POTC] | 0.0301 | 0.0124 | – |
| CC[C@@H]1C(=O)OC[C@@H]1Cc1cncn1C [PN, Pilocarpine Nitrate] | – | – | no significant changes from its initial concentration |
